{"source": "patent US10730874B2", "about": "(Shire Human Genetic Therapies, Inc., priority 2018, dated 2020)", "molecular_target": "human activated kallikrein enzyme (plasma kallikrein) (Homo sapiens (Human), UniProt P03952)", "sequence (P03952 391-638)": "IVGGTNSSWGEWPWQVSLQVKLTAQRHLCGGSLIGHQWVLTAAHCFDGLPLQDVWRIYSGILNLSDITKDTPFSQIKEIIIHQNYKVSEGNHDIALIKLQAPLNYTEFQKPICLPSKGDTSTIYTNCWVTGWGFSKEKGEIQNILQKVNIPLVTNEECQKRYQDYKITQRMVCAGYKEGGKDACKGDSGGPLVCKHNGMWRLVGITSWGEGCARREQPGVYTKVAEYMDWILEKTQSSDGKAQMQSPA", "sequence (P03952 20-390 partner)": "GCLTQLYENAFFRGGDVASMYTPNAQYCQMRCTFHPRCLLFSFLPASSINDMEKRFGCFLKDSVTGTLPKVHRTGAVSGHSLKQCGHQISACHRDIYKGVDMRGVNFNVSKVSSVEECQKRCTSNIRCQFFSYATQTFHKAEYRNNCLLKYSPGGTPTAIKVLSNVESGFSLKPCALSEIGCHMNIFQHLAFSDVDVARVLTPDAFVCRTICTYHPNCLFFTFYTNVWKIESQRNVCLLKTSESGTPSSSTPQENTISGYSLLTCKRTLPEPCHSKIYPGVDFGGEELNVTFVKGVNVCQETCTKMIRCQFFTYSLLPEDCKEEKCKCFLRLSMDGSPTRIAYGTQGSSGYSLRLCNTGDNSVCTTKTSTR", "experiment": "Inhibition of human activated plasma kallikrein, fluorogenic peptide substrate assay, 500 pM enzyme format", "format": "biochemical", "settings": "500 pM activated kallikrein enzyme, 300 uM Pro-Phe-Arg-7-amido-4-methylcoumarin substrate, 30 min preincubation, 10 min at RT; read-out: Primary Dose Response Assay: Average EC50", "in_short": "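Buffer 20 mM Tris pH 7.5, EDTA, NaCl, PEG-400, Triton X-100; 300 uM Pro-Phe-Arg-AMC; enzyme–inhibitor preincubation 30 min RT. Format one: 500 pM kallikrein, 10 min RT reaction; format two: 5 pM kallikrein, 18 h RT reaction. Fluorescence read at 460 nm (380 nm excitation).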", "note": "pEC50: −log10 of the molar value.", "data": [{"smiles": "COc1c(C2CC2)ccc2nc(Cn3cc(C(=O)NCc4ncn5ccc(Cl)cc45)cn3)cn12", "note": "[Example I-142, N-((7-chloroimidazo[1,5-a]pyridin-1-yl)methyl)-1-((6-cyclopropyl-5-methoxyimidazo[1,2-a]pyridin-2-yl)methyl)-1H-pyrazole-4-carboxamide]", "values": [{"measurement": "pEC50", "result": "8.00 to 9.00"}]}, {"smiles": "O=C(NCc1ncn2ccc(Cl)cc12)c1cnn(Cc2cn3cc(C4CC4)cc(C(F)(F)F)c3n2)c1", "note": "[Example I-143, N-((7-chloroimidazo[1,5-a]pyridin-1-yl)methyl)-1-((6-cyclopropyl-8-(trifluoromethyl)imidazo[1,2-a]pyridin-2-yl)methyl)-1H-pyrazole-4-carboxamide]", "values": [{"measurement": "pEC50", "result": "> 9.00"}]}, {"smiles": "O=C(NCc1ncn2ccc(Cl)cc12)c1cn(Cc2cn3c(F)c(C4CC4)ccc3n2)nn1", "note": "[Example I-144, N-((7-chloroimidazo[1,5-a]pyridin-1-yl)methyl)-1-((6-cyclopropyl-5-fluoroimidazo[1,2-a]pyridin-2-yl)methyl)-1H-1,2,3-triazole-4-carboxamide]", "values": [{"measurement": "pEC50", "result": "> 9.00"}]}, {"smiles": "O=C(NCc1ncn2ccc(Br)c(F)c12)c1cn(Cc2cn3c(F)c(C4CC4)ccc3n2)nn1", "note": "[Example I-145, N-((7-bromo-8-fluoroimidazo[1,5-a]pyridin-1-yl)methyl)-1-((6-cyclopropyl-5-fluoroimidazo[1,2-a]pyridin-2-yl)methyl)-1H-1,2,3-triazole-4-carboxamide]", "values": [{"measurement": "pEC50", "result": "> 9.00"}]}, {"smiles": "O=C(NCc1ncn2ccc(Cl)c(F)c12)c1cnn(Cc2cn3nc(C4CC4)ccc3n2)c1", "note": "[Example I-146, N-((7-chloro-8-fluoroimidazo[1,5-a]pyridin-1-yl)methyl)-1-((6-cyclopropylimidazo[1,2-b]pyridazin-2-yl)methyl)-1H-pyrazole-4-carboxamide]", "values": [{"measurement": "pEC50", "result": "> 9.00"}]}, {"smiles": "O=C(NCc1ncn2ccc(Cl)c(F)c12)c1cnn(Cc2cn3cc(C4CC4)ccc3n2)c1", "note": "[Example I-147, N-((7-chloro-8-fluoroimidazo[1,5-a]pyridin-1-yl)methyl)-1-((6-cyclopropylimidazo[1,2-a]pyridin-2-yl)methyl)-1H-pyrazole-4-carboxamide]", "values": [{"measurement": "pEC50", "result": "> 9.00"}]}, {"smiles": "O=C(NCc1ncn2ccc(Cl)c(F)c12)c1cn(Cc2cn3cc(C4CC4)ccc3n2)nn1", "note": "[Example I-148, N-((7-chloro-8-fluoroimidazo[1,5-a]pyridin-1-yl)methyl)-1-((6-cyclopropylimidazo[1,2-a]pyridin-2-yl)methyl)-1H-1,2,3-triazole-4-carboxamide]", "values": [{"measurement": "pEC50", "result": "> 9.00"}]}, {"smiles": "N#Cc1cc(C2CC2)cn2cc(Cn3cc(C(=O)NCc4ncn5ccc(Cl)c(F)c45)nn3)nc12", "note": "[Example I-149, N-((7-chloro-8-fluoroimidazo[1,5-a]pyridin-1-yl)methyl)-1-((8-cyano-6-cyclopropylimidazo[1,2-a]pyridin-2-yl)methyl)-1H-1,2,3-triazole-4-carboxamide]", "values": [{"measurement": "pEC50", "result": "> 9.00"}]}, {"smiles": "O=C(NCc1ncn2ccc(Cl)c(F)c12)c1cn(Cc2cn3nc(C4CC4)ccc3n2)nn1", "note": "[Example I-150, N-((7-chloro-8-fluoroimidazo[1,5-a]pyridin-1-yl)methyl)-1-((6-cyclopropylimidazo[1,2-b]pyridazin-2-yl)methyl)-1H-1,2,3-triazole-4-carboxamide]", "values": [{"measurement": "pEC50", "result": "> 9.00"}]}, {"smiles": "O=C(NCc1ncn2cc(F)c(Br)cc12)c1cnn(Cc2cn3cc(C4CC4)ccc3n2)c1", "note": "[Example I-151, N-((7-bromo-6-fluoroimidazo[1,5-a]pyridin-1-yl)methyl)-1-((6-cyclopropylimidazo[1,2-a]pyridin-2-yl)methyl)-1H-pyrazole-4-carboxamide]", "values": [{"measurement": "pEC50", "result": "7.00 to 8.00"}]}, {"smiles": "O=C(NCc1ncn2ccc(Cl)cc12)c1ncn(Cc2cn3cc(C4CC4)ccc3n2)n1", "note": "[Example I-152, N-((7-chloroimidazo[1,5-a]pyridin-1-yl)methyl)-1-((6-cyclopropylimidazo[1,2-a]pyridin-2-yl)methyl)-1H-1,2,4-triazole-3-carboxamide]", "values": [{"measurement": "pEC50", "result": "> 9.00"}]}, {"smiles": "O=C(NCc1ncn2ccc(Cl)cc12)c1cn(Cc2cn3cc(C4CC4)cc(C4(O)COC4)c3n2)nn1", "note": "[Example I-153, N-((7-chloroimidazo[1,5-a]pyridin-1-yl)methyl)-1-((6-cyclopropyl-8-(3-hydroxyoxetan-3-yl)imidazo[1,2-a]pyridin-2-yl)methyl)-1H-1,2,3-triazole-4-carboxamide]", "values": [{"measurement": "pEC50", "result": "> 9.00"}]}, {"smiles": "N#Cc1cc(C2CC2)cn2cc(Cc3nnc(C(=O)NCc4ncn5ccc(Br)c(F)c45)o3)nc12", "note": "[Example I-154, N-((7-bromo-8-fluoroimidazo[1,5-a]pyridin-1-yl)methyl)-5-((8-cyano-6-cyclopropylimidazo[1,2-a]pyridin-2-yl)methyl)-1,3,4-oxadiazole-2-carboxamide]", "values": [{"measurement": "pEC50", "result": "> 9.00"}]}, {"smiles": "O=C(NCc1ncn2ccc(Cl)cc12)c1cnn(Cc2cn3cc(C4CC4)cc(Cc4nnco4)c3n2)c1", "note": "[Example I-155, 1-((8-((1,3,4-oxadiazol-2-yl)methyl)-6-cyclopropylimidazo[1,2-a]pyridin-2-yl)methyl)-N-((7-chloroimidazo[1,5-a]pyridin-1-yl)methyl)-1H-pyrazole-4-carboxamide]", "values": [{"measurement": "pEC50", "result": "> 9.00"}]}, {"smiles": "O=C(NCc1ncn2ccc(Cl)c(F)c12)c1nnc(Cc2cn3nc(C4CC4)ccc3n2)o1", "note": "[Example I-156, N-((7-chloro-8-fluoroimidazo[1,5-a]pyridin-1-yl)methyl)-5-((6-cyclopropylimidazo[1,2-b]pyridazin-2-yl)methyl)-1,3,4-oxadiazole-2-carboxamide]", "values": [{"measurement": "pEC50", "result": "> 9.00"}]}, {"smiles": "CCOC(=O)Cc1cc(C2CC2)cn2cc(Cn3cc(C(=O)NCc4ncn5ccc(Cl)c(F)c45)nn3)nc12", "note": "[Example I-157a, ethyl 2-(2-((4-(((7-chloro-8-fluoroimidazo[1,5-a]pyridin-1-yl)methyl)carbamoyl)-1H-1,2,3-triazol-1-yl)methyl)-6-cyclopropylimidazo[1,2-a]pyridin-8-yl)acetate]", "values": [{"measurement": "pEC50", "result": "> 9.00"}]}, {"smiles": "O=C(O)Cc1cc(C2CC2)cn2cc(Cn3cc(C(=O)NCc4ncn5ccc(Cl)c(F)c45)nn3)nc12", "note": "[Example I-157b, 2-(2-((4-(((7-chloro-8-fluoroimidazo[1,5-a]pyridin-1-yl)methyl)carbamoyl)-1H-1,2,3-triazol-1-yl)methyl)-6-cyclopropylimidazo[1,2-a]pyridin-8-yl)acetic acid]", "values": [{"measurement": "pEC50", "result": "> 9.00"}]}, {"smiles": "N#Cc1cc(C2CC2)cn2cc(Cc3nnc(C(=O)NCc4ncn5ccc(Cl)c(F)c45)o3)nc12", "note": "[Example I-158, N-((7-chloro-8-fluoroimidazo[1,5-a]pyridin-1-yl)methyl)-5-((8-cyano-6-cyclopropylimidazo[1,2-a]pyridin-2-yl)methyl)-1,3,4-oxadiazole-2-carboxamide]", "values": [{"measurement": "pEC50", "result": "> 9.00"}]}, {"smiles": "CS(=O)(=O)c1cc(C2CC2)cn2cc(Cn3cc(C(=O)NCc4ncn5ccc(Cl)cc45)cn3)nc12", "note": "[Example I-159, N-((7-chloroimidazo[1,5-a]pyridin-1-yl)methyl)-1-((6-cyclopropyl-8-(methylsulfonyl)imidazo[1,2-a]pyridin-2-yl)methyl)-1H-pyrazole-4-carboxamide]", "values": [{"measurement": "pEC50", "result": "> 9.00"}]}, {"smiles": "Cn1nc(C(=O)NCc2ncn3ccc(Cl)cc23)nc1Cc1cn2cc(C3CC3)ccc2n1", "note": "[Example I-160, N-((7-chloroimidazo[1,5-a]pyridin-1-yl)methyl)-5-((6-cyclopropylimidazo[1,2-a]pyridin-2-yl)methyl)-1-methyl-1H-1,2,4-triazole-3-carboxamide]", "values": [{"measurement": "pEC50", "result": "8.00 to 9.00"}]}, {"smiles": "O=C(NCc1ncn2ccc(Cl)cc12)c1nnc(Cc2cn3cc(C4CC4)ccc3n2)[nH]1", "note": "[Example I-161, N-((7-chloroimidazo[1,5-a]pyridin-1-yl)methyl)-5-((6-cyclopropylimidazo[1,2-a]pyridin-2-yl)methyl)-4H-1,2,4-triazole-3-carboxamide]", "values": [{"measurement": "pEC50", "result": "8.00 to 9.00"}]}, {"smiles": "CCOC(=O)C(C)(C)Cc1cc(C2CC2)cn2cc(Cn3cc(C(=O)NCc4ncn5ccc(Cl)cc45)cn3)nc12", "note": "[Example I-162, ethyl 3-(2-((4-(((7-chloroimidazo[1,5-a]pyridin-1-yl)methyl)carbamoyl)-1H-pyrazol-1-yl)methyl)-6-cyclopropylimidazo[1,2-a]pyridin-8-yl)-2,2-dimethylpropanoate]", "values": [{"measurement": "pEC50", "result": "> 9.00"}]}, {"smiles": "CCOC(=O)CCc1cc(C2CC2)cn2cc(Cn3cc(C(=O)NCc4ncn5ccc(Cl)c(F)c45)nn3)nc12", "note": "[Example I-163a, ethyl 3-(2-((4-(((7-chloro-8-fluoroimidazo[1,5-a]pyridin-1-yl)methyl)carbamoyl)-1H-1,2,3-triazol-1-yl)methyl)-6-cyclopropylimidazo[1,2-a]pyridin-8-yl)propanoate]", "values": [{"measurement": "pEC50", "result": "> 9.00"}]}, {"smiles": "O=C(O)CCc1cc(C2CC2)cn2cc(Cn3cc(C(=O)NCc4ncn5ccc(Cl)c(F)c45)nn3)nc12", "note": "[Example I-163b, 3-(2-((4-(((7-chloro-8-fluoroimidazo[1,5-a]pyridin-1-yl)methyl)carbamoyl)-1H-1,2,3-triazol-1-yl)methyl)-6-cyclopropylimidazo[1,2-a]pyridin-8-yl)propanoic acid]", "values": [{"measurement": "pEC50", "result": "> 9.00"}]}, {"smiles": "O=C(NCc1ncn2ccc(Cl)c(F)c12)c1cn(Cc2cn3cc(C4CC4)cnc3n2)nn1", "note": "[Example I-165, N-((7-chloro-8-fluoroimidazo[1,5-a]pyridin-1-yl)methyl)-1-((6-cyclopropylimidazo[1,2-a]pyrimidin-2-yl)methyl)-1H-1,2,3-triazole-4-carboxamide]", "values": [{"measurement": "pEC50", "result": "> 9.00"}]}, {"smiles": "CCOC(=O)c1cc(C2CC2)cn2cc(Cn3cc(C(=O)NCc4ncn5ccc(Cl)c(F)c45)nn3)nc12", "note": "[Example I-166a, ethyl 2-((4-(((7-chloro-8-fluoroimidazo[1,5-a]pyridin-1-yl)methyl)carbamoyl)-1H-1,2,3-triazol-1-yl)methyl)-6-cyclopropylimidazo[1,2-a]pyridine-8-carboxylate]", "values": [{"measurement": "pEC50", "result": "> 9.00"}]}, {"smiles": "O=C(NCc1ncn2ccc(Cl)c(F)c12)c1cn(Cc2cn3cc(C4CC4)cc(C(=O)O)c3n2)nn1", "note": "[Example I-166b, 2-((4-(((7-chloro-8-fluoroimidazo[1,5-a]pyridin-1-yl)methyl)carbamoyl)-1H-1,2,3-triazol-1-yl)methyl)-6-cyclopropylimidazo[1,2-a]pyridine-8-carboxylic acid]", "values": [{"measurement": "pEC50", "result": "> 9.00"}]}]}
